What was measured:
[1] = test system: LL1-BT-474-J4 (J4) breast cell clone; assay: CellTiter-Glo cell growth inhibition assay, LL1-BT-474-J4; type: cell-based; conditions: for IC50: 72 h; for sensitivity of the cell line to the agent (in words): LL1-BT-474-J4
[2] = test system: MDA-MB-231 breast tumor cell line; assay: CellTiter-Glo cell growth inhibition assay, MDA-MB-231; type: cell-based; conditions: Homo sapiens, 72 h, post EMT, HER normal, 3 days
Experimental: (§1) Breast tumor cell lines, BT-474, SK-Br-3, MDA-MB-453, MDA-MB-231 and T47D and head and neck squamous cell carcinoma line, SCC15 were purchased from the American Type Culture Collection.
(§2) BT-474, SK-Br-3, JimT-1, MDA-MB-453, MDA-MB-231 and T47D and SCC15 were cultured in a humidified incubator at 37° C. in 95% air, 5% CO2 in the RPMI 1640 containing 10% fetal bovine serum (FBS) media.
(§3) Cell growth inhibition was determined via CellTiter-Glo cell viability assays. Cells were seeded in a 96-well tissue culture plate (NUNC 136102) with the following plating densities in their respective media at 1000 or 2000 cells/well dependent on cell growth rate. […] The cells were incubated in the presence of the compounds for 3 days. ATP levels were determined by adding Cell Titer Glo® (Promega), incubating for 20 minutes then a luminescent signal was read on the SpectraMax M5 plate with a 0.5 sec integration time. Cell growth was calculated relative to vehicle (DMSO) treated control wells. […] When the CI value was between 0.9 and 1.10, the combination of the two agents was deemed additive. Combination Index values less than 0.9 were considered indicative of synergy. Combination Index values>1.10 indicated antagonism.

[3] = test system: T47D breast tumor cell line; assay: CellTiter-Glo cell growth inhibition assay, T47D; type: cell-based; conditions: Homo sapiens, 72 h, luminal, HER normal, 3 days
Experimental: as §1, §2, §3

[4] = test system: MDA-MB-453 breast tumor cell line; assay: CellTiter-Glo cell growth inhibition assay, MDA-MB-453; type: cell-based; conditions: Homo sapiens, 72 h, luminal, HER2+, 3 days
Experimental: as §1, §2, §3

[5] = test system: JIMT-1 breast tumor cell line; assay: CellTiter-Glo cell growth inhibition assay, JIMT-1; type: cell-based; conditions: for IC50: Homo sapiens, JIMT-1, 72 h, JIMT1, breast, basal, HER2+, 3 days
Experimental: as §1, §2, §3

[6] = test system: SCC15 head and neck squamous cell carcinoma line; assay: cells; conditions: Homo sapiens, SCC-15, 72 h, read-out: IC50 (cell growth inhibition)
Experimental: as §1, §2, §3

[7] = test system: SK-BR-3 breast tumor cell line; assay: CellTiter-Glo cell growth inhibition assay, SK-BR-3; type: cell-based; conditions: Homo sapiens, 72 h, luminal, HER2+, 3 days
Experimental: as §1, §2, §3

[8] = test system: BT-474 breast tumor cell line; assay: CellTiter-Glo cell growth inhibition assay, BT-474; type: cell-based; conditions: for IC50: Homo sapiens, BT-474, 72 h, BT474, breast, luminal, HER2+, 3 days
Experimental: as §1, §2, §3

[9] = test system: HN5C2 head and neck tumor cell line; assay: CellTiter-Glo cell growth inhibition assay, HN5C2; type: cell-based
[10] = test system: EGFR and erbB2 kinases; conditions: Rusnak et al., 2001b, Xia et al., 2002; cited from earlier work

Structure (SMILES)	IC50 [1] [µM]	IC50 [2] [µM]	IC50 [3] [µM]	IC50 [4] [µM]	IC50 [5] [µM]	IC50 [6] [µM]	IC50 [7] [µM]	IC50 [8] [µM]	sensitivity of the cell line to the agent (in words) [1]	IC50 ([9]; 72 h) [µM]	sensitivity of the cell line to the agent (in words) ([9]; HN5C2)	sensitivity of the cell line to the agent (in words) ([5]; JIMT-1)	kinase inhibition in human xenograft studies [10]	sensitivity of the cell line to the agent (in words) ([8]; BT-474)
Cc1nc(Nc2ncc(C(=O)Nc3c(C)cccc3Cl)s2)cc(N2CCN(CCO)CC2)n1 [Dasatinib, N-(2-chloro-6-methylphenyl)-2-[[6-[4-(2-hydroxyethyl)-1-piperazinyl]-2-methyl-4-pyrimidinyl]amino]-5-thiazolecarboxamide,monohydrate]	> 10	0.23	8.96	> 10	0.4	0.06	6.64	10.1	–	–	–	–	–	–
CC(=O)O[C@H]1C(=O)[C@@]2(C)[C@H]([C@H](OC(=O)c3ccccc3)[C@]3(O)C[C@H](OC(=O)[C@H](O)[C@@H](NC(=O)c4ccccc4)c4ccccc4)C(C)=C1C3(C)C)[C@]1(OC(C)=O)CO[C@@H]1C[C@@H]2O [taxol]	–	–	–	–	–	–	–	–	retains sensitivity	–	–	–	–	–
COc1cc2ncnc(Nc3ccc(F)c(Cl)c3)c2cc1OCCCN1CCOCC1 [gefitinb]	–	–	–	–	–	–	–	–	resistant	–	–	–	–	–
CS(=O)(=O)CCNCc1ccc(-c2ccc3ncnc(Nc4ccc(OCc5cccc(F)c5)c(Cl)c4)c3c2)o1 [Lapatinib, N-{3-chloro-4-[(3-fluorobenzyl)oxy]phenyl}-6-[5-({[2-(methanesulphonyl)ethyl]amino}methyl)-2-furyl]-4-quinazolinamine]	10.9	> 10	> 10	4.79	14.7	–	0.22	0.09	resistant	9.78	resistant	resistant	dose-dependent kinase inhibition	highly sensitive

From patent US20120035183A1, “Cancer Treatment Method” (priority 2008, published 2012)
